We go through five compounds from patent publication US6184209A, “Diabetes treatment” (Alizyme Therapeutics Limited, priority 1996, dated 2001).

The test system of experiment [1] is dopamine-depleted rats. To be noted: rat, in vivo; cited from earlier work.
Experiment [2] relates to urodele limb. As to conditions: in vivo; cited from earlier work.
For experiment [3], the system named is EDL muscles--female mice. Kind of experiment: 2-deoxy-D-[1-3H]glucose uptake into EDL muscles, female mice. Type of experiment: cell-based. As to conditions: 10^-7 M; for increase in the uptake of 2-deoxy-D-glucose into the muscles (%): normal female mice. Here is the method: (§1) Isolated soleus, EDL (extensor digitorum longus) or diaphragm muscles of normal male and female mice were incubated for 30 min at 37° C. in oxygenated Krebs buffer containing 2-deoxy-D-[1-^3 H]glucose. 2-Deoxy-D-glucose is a derivative of D-glucose which is taken up into muscle by carrier-mediated transport and which accumulates in muscle as 2-deoxy-D-glucose-6-phosphate without further metabolism. The tritiated derivative can therefore be used to determine the uptake into muscle of D-glucose (which itself is metabolised). A COOH-terminal (C-terminal) fragment of β-endorphin and an analogue of a β-endorphin fragment were added to the Krebs buffer. These were the C-terminal dipeptide (glycyl-L-glutamine or glycyl-L-glutamic acid) and CH3 CO-Lys-D-Lys-Sar-Glu, a stable analogue of the C-terminal tetrapeptide of β-endorphin. Pyruvate (2 mM) and 2% bovine serum albumen were also present in the bathing medium surrounding the muscles. The extracellular space in the muscles was determined by including L-[1-^14 C] glucose, which is not transported into muscle via the D-glucose membrane carrier.
(§2) At the end of the incubation period, the tissue samples were digested in 1 M NaOH at 90° C. and the radioactivity counted by liquid scintillation counting.
d) EDL muscles--female mice
Following the procedure outlined in Example 1, it was shown that Gly-Gin in a concentration of 10^-7 M caused a 180% increase in 2-deoxy-D-glucoseuptake in EDL muscles of normal female mice, whilst with Gly-Glu there was an 80% increase.

Experiment [4] concerns Isolated soleus muscles--male mice. Kind of experiment: 2-deoxy-D-[1-3H]glucose uptake into isolated soleus muscles, male mice. It counts as cell-based. As to conditions: 10^-9 M. Here is the method: as §1, §2
a) Isolated soleus muscles--male mice

The subject of experiment [5] is Isolated soleus muscles--female mice. Briefly: 2-deoxy-D-[1-3H]glucose uptake into isolated soleus muscles, female mice. Type of experiment: cell-based. To be noted: 10^-8 M. As to the method:
as §1, §2
b) Isolated soleus muscles--female mice

Experiment [6] concerns EDL muscles--male mice. Briefly: 2-deoxy-D-[1-3H]glucose uptake into EDL muscles, male mice. As to conditions: 10^-9 M. It counts as cell-based. Here is the method: as §1, §2
c) EDL muscles--male mice

In experiment [7] the test system is Diaphragm muscles--female mice. Briefly: 2-deoxy-D-[1-3H]glucose uptake into diaphragm muscles, female mice. To be noted: 10^-8 M. Type of experiment: cell-based. Here is the method:
as §1, §2
e) Diaphragm muscles--female mice

Experiment [8] deals with subjects with non-insulin dependent diabetes mellitus (type II). As to conditions: type II diabetics, cited from earlier work.
The mark [9] stands for this setting: 2.5 mg by intravenous bolus injection.

Where a SMILES comes first, the peptide text is derived from it.

Consider “Lys-Lys-Gly-Glu (KKGE; printed: Lys-Lys-Gly-Glu) [MPF]”, for which the “turning response of dopamine-depleted rats to D-amphetamine” value in experiment [1] was “significant reductions”. Besides, the urodele limb regeneration result in experiment [2] is “promoting”.

`NCC(=O)N[C@@H](CCC(=O)O)C(=O)O` [Gly-Glu, glycyl-L-glutamic acid] (H-Gly-Glu-OH): the “increase in the uptake of 2-deoxy-D-glucose into the muscles (%)” value (“increase in the uptake … (%)” for short) in experiment [3] was 80%.

With `NCC(=O)N[C@@H](CCC(N)=O)C(=O)O` [Gly-Gin, glycyl-L-glutamine] (H-Gly-Gln-OH), in experiment [3], the “increase in the uptake … (%)” value is 180%.

insulin: the “increase in the uptake … (%)” value in experiment [4] was 500%; in experiment [5], about 100%; in experiment [6] it was 150%; in experiment [3], 250%. For the same compound, the “increase in the uptake of 2-deoxy-D-glucose into the muscles (fold)” value in experiment [4] is recorded as 6 fold; in experiment [5], “approximately 2 fold”; in experiment [6], 2.5 fold; in experiment [3] (female mice), 3.5 fold; in experiment [7], “similar”.

As to “β-endorphin (YGGFMTSEKSQTPLVTLFKNAIIKNAYKKGE; Beta-endorphin; UniProt P01189 237-267, looked up) [human β-endorphin]”, in experiment [8] (setting [9]), the “duration of increments in plasma insulin and glucagon” value was “up to 90 minutes”; the “plasma concentrations of insulin and glucagon” value was “prompt and simultaneous increments”. Besides, the “progressive decline in plasma glucose: effect of administration” value in experiment [8] (administration one hour after start of three hour study period) is given as “substantially unaffected”.
